Where two headings read alike, the source gives them in different places.
How the values were obtained:
GPR88 KO and WT mice [1] = assay: Phencyclidine-stimulated locomotor hyperactivity; assay type: in vivo
[2] = molecular target: T1, striatal dopamine D2 receptors (Mus musculus, UniProt P61168); assay: [3H]spiperone binding to striatal membrane preparations; design: species or system mice
T1 construct: from tissue; host or cells: mouse striatum (WT and GPR88 knockout mice), membrane preparation
Experimental: Striata from 10 mice (male and female, WT & GPR88 KO) were pooled and homogenized in a motor-driven POLYTRON™ homogenizer (Kinematica AG, Newark, N.J.) at setting six for 10 seconds in 3 mL per 100 mg of wet tissue in 50 mM Tris-HCl buffer, pH 7.4, containing 120 mM NaCl, 5 mM KCl, 1.5 mM CaCl2, 4 mM MgCl2, and 1 mM EDTA. […] The binding of each concentration of radioligand was determined in duplicate. Incubations were carried out at room temperature for 120 minutes. The final concentration of the membrane protein in each binding assay was approximately 70 μg/ml. Butaclamol (+), (10 μM), (Sigma-Aldrich, St. Louis, Mo.) was used to define the nonspecific binding. The incubations were terminated by rapid filtration using a Wallac Tomtec harvester (Waltham, Mass.) and buffer-presoaked glass fiber filter mats (GF/B, Whatman Inc. Florham Park, N.J.). […] The radioactivity of the filters was then counted in a Wallac 1205 scintillation counter (Perkin Elmer Life and Analytical Sciences).
The estimates of Bmax (the number of available binding receptors) and Kd (the dissociation constant) were calculated by fitting the specific binding data with nonlinear regression using GraphPad PRISM™ data analysis software (GraphPad Software, San Diego, Calif.).

GPR88 KO and WT mice [3] = assay: Amphetamine-stimulated locomotor hyperactivity; assay type: in vivo; conditions: 3 mg/kg i.p.
Experimental: The amphetamine-stimulated locomotor hyperactivity assay is another type of assay to model the neuropathological states in schizophrenia, similar to the hyperdopaminergia in the ventral striatum. To measure spontaneous activity and amphetamine-stimulated locomotor hyperactivity, the mice were individually placed in Opto-Veramax-3 monitor cages (Columbus Instruments, Columbus, Ohio) and allowed to habituate for 30 minutes with room light and white noise on. After habituation, each mouse was injected with amphetamine (AMPH, 3 mg/kg) in the intraperitoneum. During the first 30 minutes, the spontaneous activity was recorded every 10 minutes. After amphetamine administration, amphetamine-stimulated locomotor hyperactivity was measured every 10 minutes over a 60 minutes time span by the activity monitor. Accuscan Versamax and Versadat software (Columbus Instruments, Columbus, Ohio) were used to convert the infrared beam breaks into horizontal activity counts. […] Males and females were analyzed separately.

GPR88 KO and WT mice [4] = assay: In vivo striatal microdialysis, extracellular dopamine after amphetamine; conditions: 3 mg/kg i.p.; both genotypes, males and females
Experimental: Chromatographic separations were performed using a Capcell PAK™, Strong Cation Exchange columns (5 μm UG80, 1.5×150 mm; Shiseido, Phenomenex, USA). The mobile phase comprised (mM) 13 Na2HPO4, 87 NaH2PO4, 0.1 EDTA and 20% methanol, was adjusted to pH 6 and delivered at 0.2 ml/minutes at 40° C.

GPR88 KO and WT mice [5] = assay: Apomorphine-induced climbing and stereotypy; assay type: in vivo
Experimental: (§1) The GPR88 KO and WT mice were acclimated to a wire cage (cylindrical ½″×½″ mesh with the dimensions of 4½″ d×5½″ h) for at least 2 hours before testing to allow proper habituation. […] (+ present, − absent). Readings were repeated every 5 minutes during a 30-minute test session.
The behavioral assessment was conducted over three conditions in succession: (1) an evaluation of the response to a subcutaneous vehicle (0.25% TWEEN® 80) injection to establish a baseline; (2) followed by an evaluation of the response to a dose of 0.3 mg/kg subcutaneous apomorphine injection; (3) followed by an evaluation of the response to 1 mg/kg subcutaneous apomorphine injection. Behavioral observation began 5 minutes after each injection. Vehicle was given at T0 minutes with observational assessment from T5-T35 minutes and habituation followed from T35-T65 minutes.
At T65, the 0.3 mg/kg dose of apomorphine was administered. Behavioral observation for the 0.3 mg/kg dose of apomorphine was from T70-T100, followed by another habituation from T100-T130 minutes.
At T130 min, the 1.0 mg/kg dose of apomorphine was administered and then the mice were scored from T135-T165 min. For each subject, the climbing scores were totaled for each observational period (maximum=12 per animal). Stereotypy scores were also summed up (maximum=6 per animal). […] Males and females were analyzed separately.

GPR88 KO and WT mice [6] = assay: Haloperidol-induced catalepsy; conditions: 1 mg/kg i.p.; for percentage of maximum catalepsy over time: 30, 60, 90, 120 minutes
Experimental: Thirty, 60, 90, and 120 minutes following drug administration, the animal's forelimbs were draped over a thin horizontal rod 1¼″ high. The amount of time in seconds for which the animal maintained this awkward posture was recorded (60 seconds was maximum). Maintenance of this position was considered catalepsy. Animals that appeared to be sedated or had loss of muscle tone were checked for a righting reflex. Those mice that could not right themselves when placed on their backs were eliminated from the study. Mean time spent in the catalepsy position for the dose at each time was expressed as a percentage of maximum possible catalepsy. During the study's four time periods, the number of seconds with maintenance of the catalepsy position was recorded for each animal. Data was subjected to repeated-measures ANOVA followed by post-hoc analysis of least squares means. Males and females were analyzed separately.

GPR88 KO and WT mice [7] = assay: Antipsychotic block of apomorphine-induced climbing and stereotypy; assay type: in vivo; conditions: for minimal effective dose (MED), block of apomorphine-induced climbing / minimal effective dose (MED), block of apomorphine-induced stereotypy: i.p. 30 minutes before apomorphine 0.54 mg/kg
Experimental: as §1
Observation and scoring for climbing and stereotypy were performed as described in Example 6. […] Males and females were analyzed separately. […] For graphical representation, the data was normalized to the amount of climbing and stereotypy shown by the vehicle treated control group.

GPR88 KO and WT mice [8] = conditions: for percentage prepulse inhibition (PPI), treatment effect: 0.54 mg/kg i.p. 30 minutes before testing, vs vehicle
Experimental: To detect potential phenotypic deficits in the GPR88 knockout mice, they were first evaluated for startle habituation. In brief, mice were tested using the SR-LAB (San Diego Instruments, San Diego, Calif.) system. Each system consists of a ventilated sound attenuated chamber containing a stabilimeter consisting of a Plexiglas cylinder (12.5 cm length, 3.5 cm diameter) mounted on a Plexiglas frame. Acoustic stimuli were delivered through a speaker mounted in the enclosure ceiling, that was 27 cm above the cylinder. Startle responses were transduced by a piezoelectric accelerometer mounted beneath the frame. Output signals were digitized and rectified as consecutive 1-millisecond (msec) readings (a total of 65 were recorded, and startle response was expressed as an averaged response across these samples) on a computer using the San Diego Instrument software. Mice were placed individually in the chamber for a 5-minute acclimation period at a background noise level of 64 dB.
Prepulse inhibition was measured immediately following the startle sensitivity test. Five different trial tests were used in studying prepulse inhibition and were performed in a pseudorandom order. These trial tests included (1) a no stimulus trial (64 dB background noise to determine basal activity), a pulse alone trial (118 dB, 40 ms duration), and three 20 ms prepulses at either 69, 76, or 84 dB intensities paired (100 ms, onset to onset) with the 118 dB pulse. […] Percentage prepulse inhibition was calculated as 100 minus the ratio of the average startle response observed at each prepulse+pulse trial relative to the pulse alone stimulus, times 100. The percentage prepulse at across dB levels was analyzed by repeated-measures ANOVA. […] Males and females were analyzed separately. […]
The PPI was averaged across the 3 dB levels and analyzed by a two-way ANOVA with genotype and treatment as the factors followed by a post hoc analysis of least square means. Males and females were again analyzed separately.

[9] = female GPR88 KO and WT mice, 1 mg/kg s.c.
[10] = GPR88 KO and WT female mice, 0.3 mg/kg
[11] = male WT mice, 0.54 and 1.0 mg/kg

T1 sequence (P61168 whole entry): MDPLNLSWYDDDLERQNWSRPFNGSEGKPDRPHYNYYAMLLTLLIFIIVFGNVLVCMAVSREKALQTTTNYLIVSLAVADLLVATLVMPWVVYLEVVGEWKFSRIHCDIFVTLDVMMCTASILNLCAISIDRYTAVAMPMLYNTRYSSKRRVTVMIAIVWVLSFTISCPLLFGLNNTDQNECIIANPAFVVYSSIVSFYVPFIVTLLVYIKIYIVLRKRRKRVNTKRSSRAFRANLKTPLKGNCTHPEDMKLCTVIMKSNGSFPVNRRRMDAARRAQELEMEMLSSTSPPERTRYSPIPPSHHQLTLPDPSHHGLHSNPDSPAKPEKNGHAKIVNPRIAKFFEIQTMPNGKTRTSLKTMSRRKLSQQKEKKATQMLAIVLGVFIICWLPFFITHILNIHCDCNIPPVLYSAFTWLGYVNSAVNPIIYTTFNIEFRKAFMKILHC

In the case of `c1ccc(C2(N3CCCCC3)CCCCC2)cc1` [PCP, phencyclidine], the “locomotor activity after administration” value (GPR88 KO and WT mice [1]; female WT and GPR88 KO mice, 1.0 mg/kg) is reported as “Neither of the genotypes responded”, the “locomotor activity after administration” value (GPR88 KO and WT mice [1]; female WT and GPR88 KO mice, 1.7 mg/kg or 3.0 mg/kg) is reported as “increased locomotor activity” and the “locomotor activation (total distance traveled), KO compared with WT” value (GPR88 KO and WT mice [1]; female mice) is reported as “increased sensitivity for locomotor activation”. For the same compound, the “locomotor activity after administration” value (GPR88 KO and WT mice [1]; male WT and GPR88 KO mice, 3 mg/kg i.p.) was “increased locomotor activity”, the “locomotor activity after administration” value (GPR88 KO and WT mice [1]; male WT and GPR88 KO mice, lower doses (1.0, 1.7 mg/kg)) was “Neither of the genotypes responded” and the “locomotor activation (total distance traveled), KO compared with WT” value (GPR88 KO and WT mice [1]; male mice) was “increased sensitivity for locomotor activation”.
For `O=C(CCCN1CCC2(CC1)C(=O)NCN2c1ccccc1)c1ccc(F)cc1` [[^3H]spiperone], the “Bmax (the number of available binding receptors)” value ([2]; striatal membranes of GPR88 KO mice) was 1.83 pmol/mg and the “Bmax (the number of available binding receptors)” value ([2]; striatal membranes of WT mice) was 1.34 pmoles/mg protein.
With `CC(N)Cc1ccccc1` (centres unmarked) [amphetamine] the “locomotor activity after administration” value (GPR88 KO and WT mice [3]; female mice, 40-90 min) was “significant increase in activity”, the “locomotor activity, KO compared with WT” value (GPR88 KO and WT mice [3]; female mice, 40-90 min) was “more hyperactivity overall” and the “locomotor activity after administration” value (GPR88 KO and WT mice [3]; male mice (GPR88 KO), 40-90 min) was “significant increase in activity”. For the same compound, the “locomotor activity, KO compared with WT” value (GPR88 KO and WT mice [3]; male mice) was “greater increase in activity up to the 50 minute time point” and the “striatal extracellular dopamine after administration” value (GPR88 KO and WT mice [4]) was “significant and equal increase in dopamine”.
In the case of `CN1CCc2cccc3c2[C@H]1Cc1ccc(O)c(O)c1-3` [apomorphine], the “average increase in climbing scores of GPR88 KO mice over the wild type mice” value (GPR88 KO and WT mice [5]; apomorphine-induced) is reported as 227%, the “average increase in stereotypy scores of GPR88 KO mice over the wild type mice” value (GPR88 KO and WT mice [5]; apomorphine-induced) is reported as 129% and the “climbing, dose effect” value (GPR88 KO and WT mice [5]; [9]) is reported as “the most climbing”. For the same compound, the “stereotypy, dose effect” value (GPR88 KO and WT mice [5]; [9]) was “the most stereotypy”, the “climbing scores, KO compared with WT” value (GPR88 KO and WT mice [5]; female mice, 0.3 mg/kg s.c.) was “higher climbing scores” and the “stereotypy, KO compared with WT” value (GPR88 KO and WT mice [5]; female mice, 0.3 mg/kg s.c.) was “more stereotypy”. The “climbing, KO compared with WT” value (GPR88 KO and WT mice [5]; female mice, 1 mg/kg s.c.) was “equivalent”, the “stereotypy scores, dose effect” value (GPR88 KO and WT mice [5]; male GPR88 KO and WT mice, 1 mg/kg s.c.) was “maximal stereotypy” and the “climbing scores, dose effect” value (GPR88 KO and WT mice [5]; male GPR88 KO and WT mice, vehicle, 0.3 and 1 mg/kg s.c.) was “climbing increasing with the dose of apomorphine”. For the same compound, the “climbing scores, KO compared with WT” value (GPR88 KO and WT mice [5]; male mice, 0.3 mg/kg s.c.) was “higher climbing scores”, the “stereotypy, KO compared with WT” value (GPR88 KO and WT mice [5]; male mice, 0.3 mg/kg s.c.) was “more stereotypy” and the “climbing, KO compared with WT” value (GPR88 KO and WT mice [5]; male mice, 1 mg/kg s.c.) was “equivalent”. The “stereotypy, KO compared with WT” value (GPR88 KO and WT mice [5]; male mice, 1 mg/kg s.c.) was “equivalent”.
In the case of `O=C(CCCN1CCC(O)(c2ccc(Cl)cc2)CC1)c1ccc(F)cc1` [haloperidol], the “percentage of maximum catalepsy over time” value (GPR88 KO and WT mice [6]; GPR88 KO and WT male mice) is reported as “percentage of maximum catalepsy increasing to the 120 minute test point”, the “percentage of maximum catalepsy over time” value (GPR88 KO and WT mice [6]; female mice) is reported as “percentage of maximum catalepsy increasing to the 120 minute test point” and the “level of catalepsy, GPR88 KO compared with WT” value (GPR88 KO and WT mice [6]; male and female mice) is reported as “equivalent levels of catalepsy”. For the same compound, the “block of apomorphine-induced climbing” value (GPR88 KO and WT mice [7]; [10]) was “full block of climbing”, the “block of apomorphine-induced stereotypy” value (GPR88 KO and WT mice [7]; [10]) was “full block of stereotypy” and the “dose required to produce a full block of climbing” value (GPR88 KO and WT mice [7]; male GPR88 KO mice) was 1.0 mg/kg. The “minimal effective dose, apomorphine-induced climbing and stereotypy (summary)” value (GPR88 KO and WT mice [7]; male GPR88 KO mice) was 0.54 mg/kg, the “block of apomorphine-induced stereotypy” value (GPR88 KO and WT mice [7]; male GPR88 KO mice, 1.0 mg/kg) was 50% and the “minimal effective dose (MED), block of apomorphine-induced climbing” value (GPR88 KO and WT mice [7]; male GPR88 KO mice) was 0.54 mg/kg. The “minimal effective dose (MED), block of apomorphine-induced stereotypy” value (GPR88 KO and WT mice [7]; male GPR88 KO mice) was 0.54 mg/kg, the “minimal effective dose, apomorphine-induced climbing and stereotypy (summary)” value (GPR88 KO and WT mice [7]; male WT mice) was less than 0.3 mg/kg and the “block of apomorphine-induced climbing” value (GPR88 KO and WT mice [7]; [11]) was “full block of climbing”. For the same compound, the “block of apomorphine-induced stereotypy” value (GPR88 KO and WT mice [7]; [11]) was “full block of stereotypy”, the “minimal effective dose (MED), block of apomorphine-induced climbing” value (GPR88 KO and WT mice [7]; male WT mice) was “less than or equal to 0.3 mg/kg” and the “minimal effective dose (MED), block of apomorphine-induced stereotypy” value (GPR88 KO and WT mice [7]; male WT mice) was “less than or equal to 0.3 mg/kg”.
For `Cc1nc2n(c(=O)c1CCN1CCC(c3noc4cc(F)ccc34)CC1)CCCC2` [risperidone], the “deficit in PPI of GPR88 KO mice upon treatment” value (GPR88 KO and WT mice [8]; GPR88 KO mice, summary statement) was “normalized”, the “percentage prepulse inhibition (PPI), treatment effect” value (GPR88 KO and WT mice [8]; male GPR88 KO mice) was “significant treatment effect” and the “percentage prepulse inhibition (PPI), treatment effect” value (GPR88 KO and WT mice [8]; male WT mice) was “significant treatment effect”.

Reference: US20080039535A1, “METHODS OF IDENTIFYING AGENTS FOR TREATING NEUROLOGICAL DISORDERS” (Wyeth, priority 2006, published 2008)
